Legend:
[1] = test system: pigmentation in the back skin of the guinea pigs; assay: Anti-pigmentation effect by oral administration (ultraviolet-irradiated skin); assay type: in vivo, A-1 guinea pigs
Protocol: Sphingomyelin was tested for its anti-pigmentation effect by oral administration. The back of female A-1 guinea pigs (body weight: approximately 400 g) was shaved and irradiated with ultraviolet rays (UVA (max. 360 nm): 30.3 kJ/m^2, UVB (max. 312 nm): 4.8 kJ/m^2) once daily for 4 days. […] The oral administration to each group was performed once daily using a sonde, and the guinea pigs were raised for 4 weeks. The sphingomyelin raw material of Example 1 was suspended in 10 g of a saline, and this suspension was orally administered to each of the groups B to D. Influence on pigmentation in the back skin of the guinea pigs in each group was measured with a colorimeter (CHROMA METER CR-200) manufactured by MINOLTA at the start of sample administration and at the completion of sample administration. A lightness recovery rate from the start of sample administration was calculated.

[2] = test system: SD rats; assay: Water maze experiment (learning ability); assay type: in vivo; conditions: 2.0% in feed for 10 days
Protocol: The sphingomyelin raw material obtained in Example 1 was used to conduct a water maze experiment for the purpose of examining the influence of orally taken sphingomyelin on learned behavior. […] First, 8-week-old male SD rats (Charles River Laboratories, Japan) were preliminarily raised for 7 days using a standard diet (AIN-93G) and then divided into 3 groups each containing 6 individuals. In this context, the rats were raised under conditions involving room temperature of 24° C., humidity of 60%, and light-dark (12 hour/12 hour) control and were allowed to freely take deionized water. [table] Subsequently, a “water filled multiple T-maze” was prepared by arranging combined T-mazes with 11 choice points in a water tank of 120 cm long, 120 cm wide, and 40 cm deep. A water maze experiment was conducted at a water temperature of 23 to 24° C. according to the method of Ishizaki (Ishizaki, Exp. Anim., vol. 27, pp. 9-12, 1978). First, the rats were separately acclimatized by 5 trials in a straight waterway a day before the test. Next, each rat was given 3 trials in the water maze for 4 consecutive days of the test. The length of time taken to swim from the start to the goal of the water maze was measured.

[3] = test system: Chinese hamster lung fibroblast cell line V79; assay type: cell-based
Protocol: The antioxidative activity of sphingomyelin was measured according to the method of Nakayama et al. (Mutation Research, vol. 281, pp. 77-80, 1992). […] Then, the antioxidative activity of sphingomyelin was determined using reduction in colony forming activity attributed to hydrogen peroxide as an index for toxicity and assessed based on the extent to which the colony forming activity recovered from such reduction by adding sphingomyelin to the cultured cells for test. The cultured cells for test were inoculated onto a plate and precultured (cell adhesion) for 2 hours. […] The cultured cells for test were incubated for 4 hours so that the cells were allowed to take up sphingomyelin, prior to hydrogen peroxide. Next, the cells were reacted for 30 minutes by the addition of hydrogen peroxide and damaged. After reaction, the cells were cultured for 5 days in a medium containing serum. In this context, the concentration of hydrogen peroxide was set to 60 μM at which colony forming activity was decreased to a few % to approximately 40%. […] In this context, higher cell viability indicates the higher antioxidative activity of the added sphingomyelin.

[4] = test system: β-Lg; assay: Test on effect of blocking allergen invasion (β-Lg and anti-β-Lg IgE in blood); assay type: in vivo, Infant Wistar rats; conditions: for Anti-β-Lg IgE: blood 2 weeks after β-Lg; for β-Lg: blood 1 hour after β-Lg
Protocol: Infant Wistar rats (14 day old, body weight: around 20 g, 8 individuals, Charles River Laboratories, Japan) were divided into a control group and sphingomyelin administration groups (SPM administration groups), and all the groups were raised using artificial milk having composition closely analogous to that of rat milk. […] On the 21st day, 100 μl of a β-Lg solution (10 mg/ml) was orally administered thereto. Blood collected from the rats after 1 hour and after 2 weeks. On the other hand, a β-Lg solution and a complete Freund adjuvant were mixed for emulsification, and the emulsion was hypodermically injected to 3 locations (both sides of the back, and the hip) of a 3-month-old rabbit (Japanese white, male, manufactured by KITAYAMA LABES Co., Ltd.) to obtain anti-β-Lg serum. A β-Lg amount in the above-described blood after 1 hour was measured by a sandwich ELISA method using this antiserum as a primary antibody and a horseradish peroxidase (PO)-labeled secondary antibody. Moreover, anti-β-Lg IgE in the above-described blood after 2 weeks was measured by an ELISA method using β-Lg and a PO-labeled anti-rat IgE antibody (manufactured by Nordic).

[5] = test system: sialomucin content in the saliva; assay: Effect of promoting sialomucin secretion: sialomucin content in rat saliva; assay type: in vivo, SD rats; conditions: 7th day of experimental diet containing 1% of the substance
Protocol: Seven-week-old male SD rats (manufactured by Charles River Laboratories, Japan, Inc) were raised under conditions involving humidity of 60%, room temperature of 24° C., and light-dark (12 hour/12 hour) control. All the rats were preliminarily raised for 1 week with a standard diet and then divided into 3 groups each containing 12 individuals. These groups were allowed to freely take their respective experimental diets and raised for 1 week. Rat saliva was collected on the 7th day after the administration of experimental diets. A sialomucin content in the saliva was measured by high-performance liquid chromatography. […] In this context, a sialomucin content in the saliva was measured by the following method: 0.2 ml of a Nembutal solution was intramuscularly injected to rats fasted for 2 hours or longer. After anesthesia, a solution of pilocarpine hydrochloride serving as a saliva secretion promoter was intramuscularly injected thereto. […] A sialomucin content in the sialomucin fraction was quantified with a Sialic Acid Fluorescence Labeling Kit (Takara Bio Inc.). […] Free N-acetyl sialic acid or O-acetylated sialic acid was reacted at 55° C. for 2.5 hours by the addition of a DMB reagent as a fluorescence labeling agent and then quantified by high-performance liquid chromatography.

## sphingomyelin
[1]; 2 mg/kg oral once daily for 4 weeks (group B), group A 31
  Lightness recovery rate: 48%
[1]; 5 mg/kg oral once daily for 4 weeks (group C)
  Lightness recovery rate: 62%
[1]; 10 mg/kg oral once daily for 4 weeks (group D)
  Lightness recovery rate: 78%
[1]; groups B to D versus saline group A, 4-week oral administration
  lightness recovery rate relative to that in the group A: up to 2.5 times
[2]; 1st day
  Length of time taken to swim to goal: 33 ± 10 s
[2]; 2nd day
  Length of time taken to swim to goal: 25 ± 6 s
[2]; 3rd day
  Length of time taken to swim to goal: 18 ± 5 s
[2]; 4th day
  Length of time taken to swim to goal: 17 ± 6 s
[3]
  own toxicity (colony forming activity): no reduction in colony forming activity
[4]; 0.05 mg/kg/day oral
  Anti-β-Lg IgE: 498.2 ± 156.8 ng/mL
  β-Lg: 38.6 ± 14.7 ng/mL
[4]; 0.1 mg/kg/day oral
  Anti-β-Lg IgE: 190.6 ± 77.8 ng/mL
  β-Lg: 13.4 ± 6.6 ng/mL
[4]; 5.0 mg/kg/day oral
  Anti-β-Lg IgE: 165.4 ± 65.9 ng/mL
  β-Lg: 5.6 ± 3.8 ng/mL
[5]
  Sialomucin content: 25.2 ± 2.9 µg/µL
